# Experimental data: US9694016B2 (Novartis AG, priority 2013, dated 2017)
# Molecular target: b-Raf (V600E) (Homo sapiens (Human), UniProt P15056, V600E)
# Settings: read-out: b-Raf IC-50; AlphaScreen, 60 min pre-incubation, 3 hours reaction
# b-Raf (V600E), sequence (P15056 whole entry V600E): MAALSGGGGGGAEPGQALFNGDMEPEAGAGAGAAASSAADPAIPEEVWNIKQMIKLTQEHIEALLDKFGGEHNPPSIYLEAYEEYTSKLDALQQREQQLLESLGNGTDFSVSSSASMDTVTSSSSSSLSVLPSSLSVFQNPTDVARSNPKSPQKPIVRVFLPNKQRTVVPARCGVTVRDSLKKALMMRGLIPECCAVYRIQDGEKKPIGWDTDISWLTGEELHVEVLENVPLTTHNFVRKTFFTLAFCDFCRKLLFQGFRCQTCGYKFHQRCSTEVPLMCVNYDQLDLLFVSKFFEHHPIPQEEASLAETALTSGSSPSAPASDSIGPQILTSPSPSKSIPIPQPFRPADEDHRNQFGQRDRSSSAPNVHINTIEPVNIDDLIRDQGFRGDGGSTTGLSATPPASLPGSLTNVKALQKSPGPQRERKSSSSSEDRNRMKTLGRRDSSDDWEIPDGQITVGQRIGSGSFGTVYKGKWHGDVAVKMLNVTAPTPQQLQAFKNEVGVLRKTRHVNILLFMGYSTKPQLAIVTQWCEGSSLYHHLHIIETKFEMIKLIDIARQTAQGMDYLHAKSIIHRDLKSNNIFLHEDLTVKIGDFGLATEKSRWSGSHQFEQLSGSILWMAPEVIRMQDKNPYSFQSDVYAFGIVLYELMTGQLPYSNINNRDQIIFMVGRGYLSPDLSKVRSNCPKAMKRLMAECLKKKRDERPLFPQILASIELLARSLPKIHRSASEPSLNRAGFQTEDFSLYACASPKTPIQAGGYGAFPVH
row,IC50 [nM],SMILES
1,9.2,"Cc1ccc(NC(=O)c2ccnc(C(C)(C)C#N)c2)cc1-c1cc(N2CCOC[C@@H]2C)c(=O)n(C)n1 [Example 663, (S)-2-(2-cyanopropan-2-yl)-N-(4-methyl-3-(1-methyl-5-(3-methylmorpholino)-6-oxo-1,6-dihydropyridazin-3-yl)phenyl)isonicotinamide]"
2,2.9,"Cc1ccc(NC(=O)c2ccnc(C(C)(F)F)c2)cc1-c1cc(N2CCOC[C@@H]2C)c(=O)n(C)n1 [Example 664, (S)-2-(1,1-difluoroethyl)-N-(4-methyl-3-(1-methyl-5-(3-methylmorpholino)-6-oxo-1,6-dihydropyridazin-3-yl)phenyl)isonicotinamide]"
3,6.7,"Cc1ccc(NC(=O)c2ccnc(C(C)(C)F)c2)cc1-c1cc(N2CCOC(C)(C)C2)c(=O)n(C)n1 [Example 665, N-(3-(5-(2,2-dimethylmorpholino)-1-methyl-6-oxo-1,6-dihydropyridazin-3-yl)-4-methylphenyl)-2-(2-fluoropropan-2-yl)isonicotinamide]"
4,7.8,"Cc1ccc(NC(=O)c2ccnc(C(C)(C)C#N)c2)cc1-c1cc(N2CCOC(C)(C)C2)c(=O)n(C)n1 [Example 666, 2-(2-cyanopropan-2-yl)-N-(3-(5-(2,2-dimethylmorpholino)-1-methyl-6-oxo-1,6-dihydropyridazin-3-yl)-4-methylphenyl)isonicotinamide]"
5,3.4,"Cc1ccc(NC(=O)c2ccnc(C(C)(F)F)c2)cc1-c1cc(N2CCOC(C)(C)C2)c(=O)n(C)n1 [Example 667, 2-(1,1-difluoroethyl)-N-(3-(5-(2,2-dimethylmorpholino)-1-methyl-6-oxo-1,6-dihydropyridazin-3-yl)-4-methylphenyl)isonicotinamide]"
6,25.5,"Cc1ccc(NC(=O)c2ccnc(C(C)(C)C#N)c2)cc1-c1cc(N2CCOCC2(C)C)c(=O)n(C)n1 [Example 671, 2-(2-cyanopropan-2-yl)-N-(3-(5-(3,3-dimethylmorpholino)-1-methyl-6-oxo-1,6-dihydropyridazin-3-yl)-4-methylphenyl)isonicotinamide]"
7,15.8,"Cc1ccc(NC(=O)c2ccnc(C(C)(C)C#N)c2)cc1-c1cc(N2CCOC[C@H]2C)c(=O)n(C)n1 [Example 672, (R)-2-(2-cyanopropan-2-yl)-N-(4-methyl-3-(1-methyl-5-(3-methylmorpholino)-6-oxo-1,6-dihydropyridazin-3-yl)phenyl)isonicotinamide]"
8,6.3,"Cc1ccc(NC(=O)c2ccnc(C(C)(C)F)c2)cc1-c1cc(N2CCOC[C@H]2C)c(=O)n(C)n1 [Example 673, (R)-2-(2-fluoropropan-2-yl)-N-(4-methyl-3-(1-methyl-5-(3-methylmorpholino)-6-oxo-1,6-dihydropyridazin-3-yl)phenyl)isonicotinamide]"
9,3.7,"Cc1ccc(NC(=O)c2ccnc(C(C)(F)F)c2)cc1-c1cc(N2CCOC[C@H]2C)c(=O)n(C)n1 [Example 674, (R)-2-(1,1-difluoroethyl)-N-(4-methyl-3-(1-methyl-5-(3-methylmorpholino)-6-oxo-1,6-dihydropyridazin-3-yl)phenyl)isonicotinamide]"
10,4.9,"Cc1ccc(NC(=O)c2ccnc(C(C)(C)C#N)c2)cc1-c1cc(C2CCOCC2)c(=O)n(C)n1 [Example 675, 2-(2-cyanopropan-2-yl)-N-(4-methyl-3-(1-methyl-6-oxo-5-(tetrahydro-2H-pyran-4-yl)-1,6-dihydropyridazin-3-yl)phenyl)isonicotinamide]"
11,2.4,"Cc1ccc(NC(=O)c2ccnc(C(C)(C)F)c2)cc1-c1cc(C2CCOCC2)c(=O)n(C)n1 [Example 676, 2-(2-fluoropropan-2-yl)-N-(4-methyl-3-(1-methyl-6-oxo-5-(tetrahydro-2H-pyran-4-yl)-1,6-dihydropyridazin-3-yl)phenyl)isonicotinamide]"
12,12.7,"Cc1ncc(NC(=O)c2ccnc(C(C)(C)F)c2)cc1-c1cc(N2CCOCC2)c(=O)n(C)n1 [Example 677, 2-(2-fluoropropan-2-yl)-N-(6-methyl-5-(1-methyl-5-morpholino-6-oxo-1,6-dihydropyridazin-3-yl)pyridin-3-yl)isonicotinamide]"
13,6.4,"Cc1ncc(NC(=O)c2ccnc(C(C)(F)F)c2)cc1-c1cc(N2CCOCC2)c(=O)n(C)n1 [Example 678, 2-(1,1-difluoroethyl)-N-(6-methyl-5-(1-methyl-5-morpholino-6-oxo-1,6-dihydropyridazin-3-yl)pyridin-3-yl)isonicotinamide]"
14,8.1,"CCC(F)(F)c1cc(C(=O)Nc2cnc(C)c(-c3cc(N4CCOCC4)c(=O)n(C)n3)c2)ccn1 [Example 679, 2-(1,1-difluoropropyl)-N-(6-methyl-5-(1-methyl-5-morpholino-6-oxo-1,6-dihydropyridazin-3-yl)pyridin-3-yl)isonicotinamide]"
15,14.6,"Cc1ncc(NC(=O)c2ccnc(C(F)F)c2)cc1-c1cc(N2CCOCC2)c(=O)n(C)n1 [Example 680, 2-(difluoromethyl)-N-(6-methyl-5-(1-methyl-5-morpholino-6-oxo-1,6-dihydropyridazin-3-yl)pyridin-3-yl)isonicotinamide]"
16,3.1,"Cc1ncc(NC(=O)c2cccc(C(F)F)c2)cc1-c1cc(N2CCOCC2)c(=O)n(C)n1 [Example 681, 3-(difluoromethyl)-N-(6-methyl-5-(1-methyl-5-morpholino-6-oxo-1,6-dihydropyridazin-3-yl)pyridin-3-yl)benzamide]"
17,6.9,"Cc1ncc(NC(=O)c2ccnc(C3CC3)c2)cc1-c1cc(N2CCOCC2)c(=O)n(C)n1 [Example 682, 2-cyclopropyl-N-(6-methyl-5-(1-methyl-5-morpholino-6-oxo-1,6-dihydropyridazin-3-yl)pyridin-3-yl)isonicotinamide]"
18,11.2,"Cc1ncc(NC(=O)c2ccnc(C3(C#N)CC3)c2)cc1-c1cc(N2CCOCC2)c(=O)n(C)n1 [Example 683, 2-(1-cyanocyclopropyl)-N-(6-methyl-5-(1-methyl-5-morpholino-6-oxo-1,6-dihydropyridazin-3-yl)pyridin-3-yl)isonicotinamide]"
19,2.9,Cc1ncc(NC(=O)c2cccc(C(F)(F)F)c2)cc1-c1ccc(C#N)c(N2CCOCC2)c1 [Example 684]
20,21.4,"Cc1ncc(NC(=O)c2cc(CN(C)C)cc(C(F)(F)F)c2)cc1-c1ccc(C#N)c(N2CCOCC2)c1 [Example 685, N-(5-(4-cyano-3-morpholinophenyl)-6-methylpyridin-3-yl)-3-((dimethylamino)methyl)-5-(trifluoromethyl)benzamide]"
21,1.7,"Cc1ncc(NC(=O)c2ccnc(C(C)C)c2)cc1-c1ccc(C#N)c(N2CCOCC2)c1 [Example 686, N-(5-(4-cyano-3-morpholinophenyl)-6-methylpyridin-3-yl)-2-isopropylisonicotinamide]"
22,0.8,"Cc1ncc(NC(=O)c2cccc(C(F)(F)F)c2)cc1-c1ccc(S(C)(=O)=O)c(N2CCOCC2)c1 [Example 687, N-(6-methyl-5-(4-(methylsulfonyl)-3-morpholinophenyl)pyridin-3-yl)-3-(trifluoromethyl)benzamide]"
23,1,"CCNc1nc(-c2cc(NC(=O)c3ccnc(C(F)(F)F)c3)ccc2C)cc(N2CCOCC2)n1 [Example 694, N-(3-(2-(ethylamino)-6-morpholinopyrimidin-4-yl)-4-methylphenyl)-2-(trifluoromethyl)isonicotinamide]"
24,4,"CCNc1nc(-c2cc(NC(=O)c3ccccc3)ccc2C)cc(N2CCOCC2)n1 [Example 695, N-(3-(2-(ethylamino)-6-morpholinopyrimidin-4-yl)-4-methylphenyl)benzamide]"
25,2.4,"CCNc1nc(-c2cc(NC(=O)c3ccnc(C(C)(C)C)c3)ccc2C)cc(N2CCOCC2)n1 [Example 696, 2-(tert-butyl)-N-(3-(2-(ethylamino)-6-morpholinopyrimidin-4-yl)-4-methylphenyl)isonicotinamide]"
26,1,"CCNc1nc(-c2cc(NC(=O)c3ccnc(C(C)(F)F)c3)ccc2C)cc(N2CCOCC2)n1 [Example 697, 2-(1,1-difluoroethyl)-N-(3-(2-(ethylamino)-6-morpholinopyrimidin-4-yl)-4-methylphenyl)isonicotinamide]"
27,0.7,"CCNc1nc(-c2cc(NC(=O)c3cccc(C(F)F)c3)ccc2C)cc(N2CCOCC2)n1 [Example 698, 3-(difluoromethyl)-N-(3-(2-(ethylamino)-6-morpholinopyrimidin-4-yl)-4-methylphenyl)benzamide]"
28,1.7,"CCNc1nc(-c2cc(NC(=O)c3cccc(-c4nnco4)c3)ccc2C)cc(N2CCOCC2)n1 [Example 699, N-(3-(2-(ethylamino)-6-morpholinopyrimidin-4-yl)-4-methylphenyl)-3-(1,3,4-oxadiazol-2-yl)benzamide]"

row,SMILES,IC50 [nM]
1,"Cc1ccc(NC(=O)c2ccnc(C(C)(C)F)c2)cc1-c1cc(N2C3CCC2COC3)c(=O)n(C)n1 [Example 668, N-(3-(5-(3-oxa-8-azabicyclo[3.2.1]octan-8-yl)-1-methyl-6-oxo-1,6-dihydropyridazin-3-yl)-4-methylphenyl)-2-(2-fluoropropan-2-yl)isonicotinamide]",4.1
2,"Cc1ccc(NC(=O)c2ccnc(C(C)(C)C#N)c2)cc1-c1cc(N2C3CCC2COC3)c(=O)n(C)n1 [Example 669, N-(3-(5-(3-oxa-8-azabicyclo[3.2.1]octan-8-yl)-1-methyl-6-oxo-1,6-dihydropyridazin-3-yl)-4-methylphenyl)-2-(2-cyanopropan-2-yl)isonicotinamide]",10
3,"Cc1ccc(NC(=O)c2ccnc(C(C)(F)F)c2)cc1-c1cc(N2C3CCC2COC3)c(=O)n(C)n1 [Example 670, N-(3-(5-(3-oxa-8-azabicyclo[3.2.1]octan-8-yl)-1-methyl-6-oxo-1,6-dihydropyridazin-3-yl)-4-methylphenyl)-2-(1,1-difluoroethyl)isonicotinamide]",2.8
4,"Cc1ccc(NC(=O)c2ccnc(C(C)(F)F)c2)cc1-c1cc(N2C3CCC2COC3)cc(=O)n1C [Example 691, N-(3-(4-(3-oxa-8-azabicyclo[3.2.1]octan-8-yl)-1-methyl-6-oxo-1,6-dihydropyridin-2-yl)-4-methylphenyl)-2-(1,1-difluoroethyl)isonicotinamide]",23.8
